In this experiment the target is T1, human PD-1 / PD-L1-Ig binding on Jurkat cell line over-expressing human PD-1 (Jurkat-PD-1) (Homo sapiens, UniProt Q15116).
T1 construct: expressed in transfected cells; host or cells: Jurkat
As to the kind of experiment: Jurkat-PD-1 Cell Binding High-Content Screening Assay (CBA). In kind it is cell-based. The settings on record: Jurkat-PD-1 cells, PE-labeled PD-L1-Ig 20 nM final; read-out: Jurkat HPD1_PDL1 IC50. The gist of the method:
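Binding of fluorescent PD-L1-Ig (phycoerythrin linked via the Ig tag, 20 nM final) to PD-1-overexpressing Jurkat cells was imaged after a 2 h, 37° C compound pretreatment and 1 hour ligand incubation.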

SMILES strings stand for the structures. Where a SMILES comes first, the peptide text is derived from it. Bridges are numbered along the chain shown (N, C = ends). [ ]: non-standard residue; d: D form. The star is where a group is joined. ξ: configuration not given here. Phe(3-CF3) = N[C@@H](Cc1cccc(C(F)(F)F)c1)C(=O)O; Ala(morpholin-4-yl) = N[C@@H](CN1CCOCC1)C(=O)O; Phe(4-COOH) = N[C@@H](Cc1ccc(C(=O)O)cc1)C(=O)O; Bip = N[C@@H](Cc1ccc(-c2ccccc2)cc1)C(=O)O; Abu(3R-NH2) = C[C@@H](N)[C@H](N)C(=O)O; Phe(3-Me) = Cc1cccc(C[C@H](N)C(=O)O)c1; Val(3-OH) = CC(C)(O)[C@H](N)C(=O)O; hPhe = N[C@@H](CCc1ccccc1)C(=O)O; αMeF = C[C@](N)(Cc1ccccc1)C(=O)O; 4Pal = N[C@@H](Cc1ccncc1)C(=O)O; 2Thi = N[C@@H](Cc1cccs1)C(=O)O; Aad = N[C@@H](CCCC(=O)O)C(=O)O; Cha = N[C@@H](CC1CCCCC1)C(=O)O; Cit = NC(=O)NCCC[C@H](N)C(=O)O; Ile(3ξ) = CCC(C)[C@H](N)C(=O)O; Thr(3ξ) = CC(O)[C@H](N)C(=O)O; Carboxymethyl = O=C(O)C*; Orn = NCCC[C@H](N)C(=O)O; Dab = NCC[C@H](N)C(=O)O; Dap = NC[C@H](N)C(=O)O

T1 sequence (Q15116 25-288): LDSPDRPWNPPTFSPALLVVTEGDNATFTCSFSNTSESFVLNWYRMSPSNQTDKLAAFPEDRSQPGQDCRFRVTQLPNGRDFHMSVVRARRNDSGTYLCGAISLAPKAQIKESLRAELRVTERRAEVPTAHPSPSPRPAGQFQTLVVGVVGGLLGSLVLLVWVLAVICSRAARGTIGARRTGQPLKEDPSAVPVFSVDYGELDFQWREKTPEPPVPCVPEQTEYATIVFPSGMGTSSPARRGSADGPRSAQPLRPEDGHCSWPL

Consider `CC(C)C[C@H]1NC(=O)[C@H](CCCN)NC(=O)[C@H](CCCNC(N)=O)NC(=O)[C@H](Cc2ccc(-c3ccccc3)cc2)NC(=O)[C@H](C(C)C)NC(=O)[C@H](Cc2c[nH]c3ccccc23)NC(=O)[C@H](CC(=O)O)NC(=O)[C@](C)(Cc2ccccc2)NC(=O)[C@H](CN)NC(=O)CSC[C@@H](C(=O)N[C@@H](C)C(N)=O)NC(=O)[C@H]([C@@H](C)O)NC(=O)[C@H](C(C)C)NC(=O)[C@H](CC2CCCCC2)NC(=O)[C@H](CCN)NC1=O` [Compound 2137] ({CH2CO}-[Dap][αMeF]DWV[Bip][Cit][Orn][dL][Dab][Cha]VTCA-NH2; thioether N-14), for which the IC50 (in general, the concentration that inhibits the measured activity by half) was found to be 11.4 nM.

As for `CC(C)C[C@H]1NC(=O)[C@H](CCCN)NC(=O)[C@H](CCCNC(N)=O)NC(=O)[C@H](Cc2ccc(-c3ccccc3)cc2)NC(=O)[C@H](C(C)C)NC(=O)[C@H](Cc2c[nH]c3ccccc23)NC(=O)[C@H](CC(=O)O)NC(=O)[C@H](CCCC(=O)O)NC(=O)[C@H](CN)NC(=O)CSC[C@@H](C(=O)N[C@@H](C)C(N)=O)NC(=O)[C@H]([C@@H](C)O)NC(=O)[C@H](C(C)C)NC(=O)[C@H](CC2CCCCC2)NC(=O)[C@H](CCN)NC1=O` [Compound 2125] ({CH2CO}-[Dap][Aad]DWV[Bip][Cit][Orn][dL][Dab][Cha]VTCA-NH2; thioether N-14), the IC50 is 57.1 nM.

Take `CCCC[C@@H]1NC(=O)[C@H](Cc2ccc(-c3ccccc3)cc2)NC(=O)[C@H](C(C)C)NC(=O)[C@H](Cc2c[nH]c3ccccc23)NC(=O)[C@H](CC(=O)O)NC(=O)[C@H](Cc2ccc(C(=O)O)cc2)NC(=O)[C@H](Cc2ccncc2)NC(=O)CSC[C@@H](C(=O)N[C@@H](C)C(N)=O)NC(=O)[C@H]([C@@H](C)O)NC(=O)[C@H](C(C)C)NC(=O)[C@H](CC2CCCCC2)NC(=O)[C@H](Cc2cnc[nH]2)NC(=O)[C@@H](CC(C)C)NC(=O)[C@H](CCCN)NC1=O` [Compound 1622]: the IC50 is 36 nM.

With `CC(C)C[C@H]1NC(=O)[C@H](CCCN)NC(=O)[C@H](CCCNC(N)=O)NC(=O)[C@H](Cc2ccc(-c3ccccc3)cc2)NC(=O)[C@H](C(C)C)NC(=O)[C@H](Cc2c[nH]c3ccccc23)NC(=O)[C@H](CC(=O)O)NC(=O)[C@H](Cc2ccc3ncccc3c2)NC(=O)[C@H](CN)NC(=O)CSC[C@@H](C(=O)N[C@@H](C)C(N)=O)NC(=O)[C@H]([C@@H](C)O)NC(=O)[C@H](C(C)C)NC(=O)[C@H](CC2CCCCC2)NC(=O)[C@H](CCN)NC1=O` [Compound 2116], the IC50 was 8.9 nM.

Take `Cc1cccc(C[C@@H]2NC(=O)[C@H](CC(=O)O)NC(=O)[C@H](Cc3ccc(C(=O)O)cc3)NC(=O)[C@H](Cc3ccc(OCC(=O)O)cc3)NC(=O)CSC[C@@H](C(N)=O)NC(=O)[C@H]([C@@H](C)O)NC(=O)[C@H](C(C)C)NC(=O)[C@H](CC(C)C)NC(=O)[C@H](CCN)NC(=O)[C@@H](CC(C)C)NC(=O)[C@H](CCCN)NC(=O)[C@H](CCC(=O)O)NC(=O)[C@H](Cc3ccc(-c4ccccc4)cc3)NC(=O)[C@H](C(C)C)NC2=O)c1` [Compound 1556] ({CH2CO}-Y(Carboxymethyl)[Phe(4-COOH)]D[Phe(3-Me)]V[Bip]E[Orn][dL][Dab]LVTC-NH2; thioether N-14): the IC50 worked out at 90.9 nM.

In the case of `CC(C)C[C@H]1NC(=O)[C@H](CCCN)NC(=O)[C@H](Cc2ccc(OCC(=O)O)cc2)NC(=O)[C@H](Cc2ccc(-c3ccccc3)cc2)NC(=O)[C@H](Cc2ccc(C(=O)O)cc2)NC(=O)[C@H](Cc2cccc(C(F)(F)F)c2)NC(=O)[C@H](CC(N)=O)NC(=O)[C@H](Cc2ccc(OCC(=O)O)cc2)NC(=O)[C@H](CN2CCOCC2)NC(=O)CSC[C@@H](C(=O)N[C@@H](CCN)C(N)=O)NC(=O)[C@H](CO)NC(=O)[C@H](C(C)C)NC(=O)[C@H](CC2CCCCC2)NC(=O)[C@H](CCN)NC1=O` [Example 2724] ({CH2CO}-[Ala(morpholin-4-yl)]Y(Carboxymethyl)N[Phe(3-CF3)][Phe(4-COOH)][Bip]Y(Carboxymethyl)[Orn][dL][Dab][Cha]VSC[Dab]-NH2; thioether N-14), the 50% inhibitory concentration (IC50) came to 35.3 nM.

With `CC(C)C[C@@H]1NC(=O)[C@H](CCN)NC(=O)[C@@H](CC(C)C)NC(=O)[C@H](CCCCN)NC(=O)[C@H](C(C)C)NC(=O)[C@H](Cc2ccc(-c3ccccc3)cc2)NC(=O)[C@H](C(C)C)NC(=O)[C@H](Cc2c[nH]c3ccccc23)NC(=O)[C@H](CC(N)=O)NC(=O)[C@H](Cc2ccc(O)cc2)NC(=O)[C@H](CC(N)=O)NC(=O)CSC[C@@H](C(=O)NCC(N)=O)NC(=O)[C@H](CO)NC(=O)[C@H](C(C)C)NC1=O` [Compound 1082] ({CH2CO}-NYNWV[Bip]VK[dL][Dab]LVSCG-NH2; thioether N-14), the 50% inhibitory concentration (IC50) amounted to 41.5 nM.

Regarding `CC(C)C[C@H]1NC(=O)[C@H](CCCN)NC(=O)[C@H](CCC(=O)O)NC(=O)[C@H](Cc2ccc(-c3ccccc3)cc2)NC(=O)[C@H](C(C)C)NC(=O)[C@H](Cc2c[nH]c3ccccc23)NC(=O)[C@H](CC(=O)O)NC(=O)[C@H](Cc2ccncc2)NC(=O)[C@H](Cc2ccncc2)NC(=O)CSC[C@@H](C(=O)N[C@@H](C)C(N)=O)NC(=O)[C@H]([C@@H](C)O)NC(=O)[C@H](C(C)C)NC(=O)[C@H](CC2CCCCC2)NC(=O)[C@H](CCN)NC1=O` [Compound 2197] ({CH2CO}-[4Pal][4Pal]DWV[Bip]E[Orn][dL][Dab][Cha]VTCA-NH2; thioether N-14), the IC50 turned out to be 8.2 nM.

Consider `CCC(C)[C@@H]1NC(=O)[C@H](Cc2ccc(-c3ccccc3)cc2)NC(=O)[C@H](C(C)C)NC(=O)[C@H](Cc2cccc(C)c2)NC(=O)[C@H](CC(=O)O)NC(=O)[C@H](Cc2ccc(C(=O)O)cc2)NC(=O)[C@H](Cc2ccncc2)NC(=O)CSC[C@@H](C(N)=O)NC(=O)[C@H](CCCN)NC(=O)[C@H](C(C)C)NC(=O)[C@H](CC2CCCCC2)NC(=O)[C@H](CCN)NC(=O)[C@@H](CC(C)C)NC(=O)[C@H](CCCN)NC1=O` (stereo partly drawn) [Compound 2273] ({CH2CO}-[4Pal][Phe(4-COOH)]D[Phe(3-Me)]V[Bip][Ile(3ξ)][Orn][dL][Dab][Cha]V[Orn]C-NH2; thioether N-14), for which the 50% inhibitory concentration (IC50) was 26.6 nM.

As for `Cc1cccc(C[C@@H]2NC(=O)[C@H](CC(=O)O)NC(=O)[C@H](Cc3ccc(C(=O)O)cc3)NC(=O)[C@H](Cc3cccs3)NC(=O)CSC[C@@H](C(=O)N[C@@H](CCN)C(N)=O)NC(=O)[C@H](CO)NC(=O)[C@H](C(C)(C)O)NC(=O)[C@H](CC3CCCCC3)NC(=O)[C@H](CCN)NC(=O)[C@@H](CC(C)C)NC(=O)[C@H](CCCN)NC(=O)[C@H](Cc3ccc(OCC(=O)O)cc3)NC(=O)[C@H](Cc3ccc(-c4ccccc4)cc3)NC(=O)[C@H](Cc3ccc(C(=O)O)cc3)NC2=O)c1` [Compound 2625] ({CH2CO}-[2Thi][Phe(4-COOH)]D[Phe(3-Me)][Phe(4-COOH)][Bip]Y(Carboxymethyl)[Orn][dL][Dab][Cha][Val(3-OH)]SC[Dab]-NH2; thioether N-14), the half-maximal inhibitory concentration (IC50) amounted to 5.7 nM.

For the compound `CC(C)[C@@H]1NC(=O)[C@H](Cc2c[nH]c3ccccc23)NC(=O)[C@H](CC(=O)O)NC(=O)[C@H](Cc2ccncc2)NC(=O)[C@H](CN)NC(=O)CSC[C@@H](C(=O)NCC(N)=O)NC(=O)[C@H](C(C)O)NC(=O)[C@H](C(C)C)NC(=O)[C@H](CC2CCCCC2)NC(=O)[C@H](CCN)NC(=O)[C@@H](C)NC(=O)[C@H](CCCN)NC(=O)[C@H](CCN)NC(=O)[C@H](Cc2ccc(-c3ccccc3)cc2)NC1=O` (some centres unmarked) [Compound 2543] ({CH2CO}-[Dap][4Pal]DWV[Bip][Dab][Orn][dA][Dab][Cha]V[Thr(3ξ)]CG-NH2; thioether N-14), the IC50 turned out to be 236 nM.

For `Cc1cccc(C[C@@H]2NC(=O)[C@H](CC(=O)O)NC(=O)[C@H](Cc3ccc(C(=O)O)cc3)NC(=O)[C@H](CCc3ccccc3)NC(=O)CSC[C@@H](C(=O)N[C@@H](CCN)C(N)=O)NC(=O)[C@H](CO)NC(=O)[C@H](C(C)(C)O)NC(=O)[C@H](CC3CCCCC3)NC(=O)[C@H](CCN)NC(=O)[C@@H](CC(C)C)NC(=O)[C@H](CCCN)NC(=O)[C@H](Cc3ccc(OCC(=O)O)cc3)NC(=O)[C@H](Cc3ccc(-c4ccccc4)cc3)NC(=O)[C@H](Cc3ccc(OCC(=O)O)cc3)NC2=O)c1` [Compound 2081] ({CH2CO}-[hPhe][Phe(4-COOH)]D[Phe(3-Me)]Y(Carboxymethyl)[Bip]Y(Carboxymethyl)[Orn][dL][Dab][Cha][Val(3-OH)]SC[Dab]-NH2; thioether N-14), the IC50 is 111 nM.

Take `CC(C)C[C@@H]1NC(=O)[C@H](CCCCN)NC(=O)[C@@H](CC(C)C)NC(=O)[C@H](CCN)NC(=O)[C@H](Cc2cnc[nH]2)NC(=O)[C@H](Cc2ccc(-c3ccccc3)cc2)NC(=O)[C@H](C(C)C)NC(=O)[C@H](Cc2c[nH]c3ccccc23)NC(=O)[C@H](CC(=O)O)NC(=O)[C@H](Cc2ccc(O)cc2)NC(=O)[C@H](CC(N)=O)NC(=O)CSC[C@@H](C(=O)N[C@@H](C)C(N)=O)NC(=O)[C@H]([C@@H](C)O)NC(=O)[C@H](C(C)C)NC1=O` [Compound 1137] ({CH2CO}-NYDWV[Bip]H[Dab][dL]KLVTCA-NH2; thioether N-14): the IC50 amounted to 47 nM.

Turning to `CC(C)C[C@H]1NC(=O)[C@H](CCCN)NC(=O)[C@H](Cc2ccc(C(=O)O)cc2)NC(=O)[C@H](Cc2ccc(-c3ccccc3)cc2)NC(=O)[C@H](Cc2ccc(C(=O)O)cc2)NC(=O)[C@H](Cc2cccc(C(F)(F)F)c2)NC(=O)[C@H](CC(N)=O)NC(=O)[C@H](Cc2ccc(C(=O)O)cc2)NC(=O)[C@H]([C@@H](C)N)NC(=O)CSC[C@@H](C(=O)N[C@@H](CCN)C(N)=O)NC(=O)[C@H](CO)NC(=O)[C@H](C(C)(C)O)NC(=O)[C@H](CC2CCCCC2)NC(=O)[C@H](CCN)NC1=O` [Example 2717] ({CH2CO}-[Abu(3R-NH2)][Phe(4-COOH)]N[Phe(3-CF3)][Phe(4-COOH)][Bip][Phe(4-COOH)][Orn][dL][Dab][Cha][Val(3-OH)]SC[Dab]-NH2; thioether N-14), the IC50 is 35.6 nM.

The values are drawn from US20250163104A1, “MACROCYCLIC IMMUNOMODULATORS” (priority 2021, published 2025).
